The experiment in a line: Binding affinity to SafBP receptor in Zea mays (maize) seedlings by [3H]Saf(R-29148) binding assay.
In turn, `CC1(C(Cl)Cl)OCCO1` gave an IC50 of 4.4 µM. For the molecule `O=C(C(Cl)Cl)N1CCOC12CCCCC2`, the IC50 is 6 µM. To `C=CCN(CC=C)C(=O)C(Cl)Cl` [DICHLORMID] belongs 0.01 µM. Molecule `CC1CN(C(=O)C(Cl)Cl)C(C)(C)O1` (centres undefined) came in with a half-inhibitory concentration (IC50) of 0.12 µM.

The record behind these values is ChEMBL document CHEMBL3045520, “Comparative three-dimensional quantitative structure-activity relationship study of safeners and herbicides” (J Agric Food Chem, 2000).
